Measured values reported in patent US10294229B2, “Heteroaryl substituted aminopyridine compounds” (BRISTOL-MYERS SQUIBB COMPANY, priority 2015, dated 2019).

What follows are compounds tested against IRAK4 (Homo sapiens (Human), UniProt Q9NWZ3) (assay: IRAK4 Inhibition Assay). Conditions: ATP 500 μM; IRAK4 0.6 nM.
Assay type: biochemical
Method: The assays were performed in U-bottom 384-well plates. The final assay volume was 30 μL prepared from 15 μL additions of enzyme and substrates (fluoresceinated peptide and ATP) and test compounds in assay buffer (20 mM HEPES pH 7.2, 10 mM MgCl2, 0.015% Brij 35 and 4 mM DTT). The reaction was initiated by the combination of IRAK4 with substrates and test compounds. The reaction mixture was incubated at room temperature for 60 min. and terminated by adding 45 μL of 35 mM EDTA to each sample. The reaction mixture was analyzed on the Caliper LABCHIP® 3000 (Caliper, Hopkinton, Mass.) by electrophoretic separation of the fluorescent substrate and phosphorylated product. Inhibition data were calculated by comparison to no enzyme control reactions for 100% inhibition and vehicle-only reactions for 0% inhibition. The final concentrations of reagents in the assays are ATP, 500 μM; FL-IPTSPITTTYFFFKKK peptide 1.5 μM; IRAK4, 0.6 nM; and DMSO, 1.6%.

IRAK4, sequence (Q9NWZ3 whole entry, species assumed): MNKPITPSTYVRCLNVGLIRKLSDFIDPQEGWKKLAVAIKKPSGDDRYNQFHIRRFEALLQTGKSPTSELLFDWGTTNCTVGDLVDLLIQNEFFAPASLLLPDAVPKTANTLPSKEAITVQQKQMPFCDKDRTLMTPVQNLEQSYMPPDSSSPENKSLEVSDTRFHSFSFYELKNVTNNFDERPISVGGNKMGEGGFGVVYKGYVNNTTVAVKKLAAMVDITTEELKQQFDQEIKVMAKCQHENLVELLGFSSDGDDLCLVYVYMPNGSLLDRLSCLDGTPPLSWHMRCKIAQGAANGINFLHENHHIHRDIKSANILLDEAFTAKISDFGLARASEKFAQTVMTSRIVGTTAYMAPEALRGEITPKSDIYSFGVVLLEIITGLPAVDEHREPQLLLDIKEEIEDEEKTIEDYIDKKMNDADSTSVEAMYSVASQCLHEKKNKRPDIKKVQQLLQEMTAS

Structure (SMILES)	IC50 [nM]
CC(C)Nc1cc(-n2ncc3cc(C#N)cnc32)ncc1-c1cn([C@@H]2CCN(C(=O)C(C)(C)C)C[C@H]2O)nn1 (single isomer, unassigned) [Example 200]	5
COC(=O)N1CC[C@@H](n2cc(-c3cnc(-n4ncc5cc(C#N)cnc54)cc3NC(C)C)nn2)[C@H](O)C1 (single isomer, unassigned) [Example 201]	4
COC(=O)N1CC[C@@H](n2cc(-c3cnc(-n4ncc5cc(C#N)cnc54)cc3NC(C)C)nn2)[C@H](O)C1 (single isomer, unassigned) [Example 205]	5
CC(O)Cc1cn(-c2cnc(-n3ncc4cc(C#N)cnc43)cc2NC2CC2)nn1 (single isomer, unassigned) [Example 274, 1-(4-(cyclopropylamino)-5-(4-(2-hydroxypropyl)-1H-1,2,3-triazol-1-yl)pyridin-2-yl)-1H-pyrazolo[3,4-b]pyridine-5-carbonitrile]	23
CC(O)Cc1cn(-c2cnc(-n3ncc4cc(C#N)cnc43)cc2NC2CC2)nn1 (single isomer, unassigned) [Example 275, 1-(4-(cyclopropylamino)-5-(4-(2-hydroxypropyl)-1H-1,2,3-triazol-1-yl)pyridin-2-yl)-1H-pyrazolo[3,4-b]pyridine-5-carbonitrile]	30
CC(F)Cc1cn(-c2cnc(-n3ncc4cc(C#N)cnc43)cc2NC(C)C)nn1 (single isomer, unassigned) [Example 292, 1-(5-(4-(2-fluoropropyl)-1H-1,2,3-triazol-1-yl)-4-(isopropylamino)pyridin-2-yl)-1H-pyrazolo[3,4-b]pyridine-5-carbonitrile]	29
CC(F)Cc1cn(-c2cnc(-n3cnc4cnc(N)nc43)cc2NC(C)C)nn1 (single isomer, unassigned) [Example 293, 9-(5-(4-(2-fluoropropyl)-1H-1,2,3-triazol-1-yl)-4-(isopropylamino)pyridin-2-yl)-9H-purin-2-amine]	28
CC(C)Nc1cc(-n2ccc3cncnc32)ncc1-c1cn(Cc2cc(=O)[nH]c(=O)[nH]2)nn1 [Example 8, 6-((4-(4-(isopropylamino)-6-(7H-pyrrolo[2,3-d]pyrimidin-7-yl)pyridin-3-yl)-1H-1,2,3-triazol-1-yl)methyl)pyrimidine-2,4(1H,3H)-dione]	7
CC(C)Nc1cc(-n2ccc3cncnc32)ncc1-c1cn(CCOCCOCCOCCO)nn1 [Example 9, 2-(2-(2-(2-(4-(4-(isopropylamino)-6-(7H-pyrrolo[2,3-d]pyrimidin-7-yl)pyridin-3-yl)-1H-1,2,3-triazol-1-yl)ethoxy)ethoxy)ethoxy) ethanol]	3
CC(C)Nc1cc(-n2ncc3cc(Cl)cnc32)ncc1-c1cn(C2COC2)nn1 [Example 26, 2-(5-chloro-1H-pyrazolo[3,4-b]pyridin-1-yl)-N-isopropyl-5-(1-(oxetan-3-yl)-1H-1,2,3-triazol-4-yl)pyridin-4-amine]	27
CC(C)Nc1cc(-n2ncc3cc(Cl)cnc32)ncc1-c1cn(CC2CC2)nn1 [Example 27, 2-(5-chloro-1H-pyrazolo [3,4-b]pyridin-1-yl)-5-(1-(cyclopropylmethyl)-1H-1,2,3-triazol-4-yl)-N-isopropylpyridin-4-amine]	16
CCCn1cc(-c2cnc(-n3ncc4cc(Cl)cnc43)cc2NC2CC2)nn1 [Example 36, 2-(5-chloro-1H-pyrazolo[3,4-b]pyridin-1-yl)-N-cyclopropyl-5-(1-propyl-1H-1,2,3-triazol-4-yl)pyridin-4-amine]	11

Further lines, results first:

IC50 [nM]	Structure (SMILES)
7	CC(C)Nc1cc(-n2cnc3cc(C#N)cnc32)ncc1-c1cn([C@@H]2COC[C@H]2O)nn1 (single isomer, unassigned) [Example 74]
7	CC(C)Nc1cc(-n2ncc3cc(C#N)cnc32)ncc1-c1cn(CC(O)Cc2ccccc2)nn1 (single isomer, unassigned) [Example 76, 1-(5-(1-(2-hydroxy-3-phenylpropyl)-1H-1,2,3-triazol-4-yl)-4-(isopropylamino)pyridin-2-yl)-1H-pyrazolo [3,4-b]pyridine-5-carbonitrile]
21	CC(C)Nc1cc(-n2ncc3cc(C#N)cnc32)ncc1-c1cn(CC(O)Cc2ccccc2)nn1 (single isomer, unassigned) [Example 77, 1-(5-(1-(2-hydroxy-3-phenylpropyl)-1H-1,2,3-triazol-4-yl)-4-(isopropylamino)pyridin-2-yl)-1H-pyrazolo [3,4-b]pyridine-5-carbonitrile]
43	CC(C)Nc1cc(-n2cnc3cc(C#N)cnc32)ncc1-c1cn(CC(O)Cc2ccccc2)nn1 (single isomer, unassigned) [Example 78, 3-(5-(1-(2-hydroxy-3-phenylpropyl)-1H-1,2,3-triazol-4-yl)-4-(isopropylamino)pyridin-2-yl)-3H-imidazo[4,5-b]pyridine-6-carbonitrile]
26	CC(C)Nc1cc(-n2cnc3cc(C#N)cnc32)ncc1-c1cn(CC(O)Cc2ccccc2)nn1 (single isomer, unassigned) [Example 79, 3-(5-(1-(2-hydroxy-3-phenylpropyl)-1H-1,2,3-triazol-4-yl)-4-(isopropylamino)pyridin-2-yl)-3H-imidazo[4,5-b]pyridine-6-carbonitrile]
21	CCC(C)(O)Cn1cc(-c2cnc(-n3cnc4cc(C#N)cnc43)cc2NC(C)C)nn1 (single isomer, unassigned) [Example 94, 3-(5-(1-(2-hydroxy-2-methylbutyl)-1H-1,2,3-triazol-4-yl)-4-(isopropylamino)pyridin-2-yl)-3H-imidazo[4,5-b]pyridine-6-carbonitrile]
16	CCC(C)(O)Cn1cc(-c2cnc(-n3cnc4cc(C#N)cnc43)cc2NC(C)C)nn1 (single isomer, unassigned) [Example 95, 3-(5-(1-(2-hydroxy-2-methylbutyl)-1H-1,2,3-triazol-4-yl)-4-(isopropylamino)pyridin-2-yl)-3H-imidazo[4,5-b]pyridine-6-carbonitrile]
25	CC(F)Cc1cn(-c2cnc(-n3cnc4cc(C#N)cnc43)cc2NC(C)C)nn1 (single isomer, unassigned) [Example 290, 3-(5-(4-(2-fluoropropyl)-1H-1,2,3-triazol-1-yl)-4-(isopropylamino)pyridin-2-yl)-3H-imidazo[4,5-b]pyridine-6-carbonitrile]
7	CC(C)Nc1cc(-n2ncc3cc(C#N)cnc32)ncc1-c1cn(C2COC2)nn1 [Example 15, 1-(4-(isopropylamino)-5-(1-(oxetan-3-yl)-1H-1,2,3-triazol-4-yl)pyridin-2-yl)-1H-pyrazolo[3,4-b]pyridine-5-carbonitrile]
17	CC(C)Nc1cc(-n2ncc3cc(C#N)cnc32)ncc1-c1cn(C(C)(C)C)nn1 [Example 18, 1-(5-(1-(tert-butyl)-1H-1,2,3-triazol-4-yl)-4-(isopropylamino)pyridin-2-yl)-1H-pyrazolo[3,4-b]pyridine-5-carbonitrile]
1	CC(C)Nc1cc(-n2ncc3cc(C#N)cnc32)ncc1-c1cn(C2CCOCC2)nn1 [Example 19, 1-(4-(isopropylamino)-5-(1-(tetrahydro-2H-pyran-4-yl)-1H-1,2,3-triazol-4-yl)pyridin-2-yl)-1H-pyrazolo[3,4-b]pyridine-5-carbonitrile]
96	CC(C)Nc1cc(-n2cnc3cc(C#N)cnc32)ncc1-c1cn(C(C)(C)C)nn1 [Example 23, 3-(5-(1-(tert-butyl)-1H-1,2,3-triazol-4-yl)-4-(isopropylamino)pyridin-2-yl)-3H-imidazo[4,5-b]pyridine-6-carbonitrile]
3	CC(C)Nc1cc(-n2cnc3cc(C#N)cnc32)ncc1-c1cn(C2CCOCC2)nn1 [Example 24, 3-(4-(isopropylamino)-5-(1-(tetrahydro-2H-pyran-4-yl)-1H-1,2,3-triazol-4-yl)pyridin-2-yl)-3H-imidazo[4,5-b]pyridine-6-carbonitrile]
10	CCn1cc(-c2cnc(-n3cnc4cc(C#N)cnc43)cc2NC(C)C)nn1 [Example 38, 3-(5-(1-ethyl-1H-1,2,3-triazol-4-yl)-4-(isopropylamino)pyridin-2-yl)-3H-imidazo[4,5-b]pyridine-6-carbonitrile]
6	CCCn1cc(-c2cnc(-n3cnc4cc(C#N)cnc43)cc2NC2CC2)nn1 [Example 43, 3-(4-(cyclopropylamino)-5-(1-propyl-1H-1,2,3-triazol-4-yl)pyridin-2-yl)-3H-imidazo[4,5-b]pyridine-6-carbonitrile]
8	CC(C)Nc1cc(-n2cnc3cc(C#N)cnc32)ncc1-c1cn(CCCF)nn1 [Example 45, 3-(5-(1-(3-fluoropropyl)-1H-1,2,3-triazol-4-yl)-4-(isopropylamino)pyridin-2-yl)-3H-imidazo[4,5-b]pyridine-6-carbonitrile]
16	CC(C)Nc1cc(-n2ncc3cc(C#N)cnc32)ncc1-c1cn(CC#N)nn1 [Example 47, 1-(5-(1-(cyanomethyl)-1H-1,2,3-triazol-4-yl)-4-(isopropylamino)pyridin-2-yl)-1H-pyrazolo[3,4-b]pyridine-5-carbonitrile]
5	CCCn1cc(-c2cnc(-n3cnc4cc(C#N)cnc43)cc2NC2CCOCC2)nn1 [Example 50, 3-(5-(1-propyl-1H-1,2,3-triazol-4-yl)-4-((tetrahydro-2H-pyran-4-yl)amino)pyridin-2-yl)-3H-imidazo[4,5-b]pyridine-6-carbonitrile]
